According to patent US20260103709A1, “C-MYC-TARGETING CHARGE-ALTERING RELEASABLE TRANSPORTERS AS ANTI-TUMOR AGENTS FOR BREAST CANCER THERAPY” (The Board of Trustees of the Leland Stanford Junior …, priority 2022, published 2026):

Columns and labels:
[1] = system: human cell lines MDA-MB-436, MDA-MB-231, and BT20; test: JQ1 cell viability IC50, human TNBC cell lines (CellTiter Glo); assay type: cell-based; settings: 24 hour treatment, range over human TNBC cell lines
Procedure: (§1) The specificity and dependence of CART siMYC's inhibitory effect on Myc or MYC levels in murine or human TNBC cells, respectively, was evaluated next. […] A number of different murine and human TNBC cell lines expressing high (murine cells: M158, M1011, and 4T1; and human cells: MDA-MB-231 and MDA-MB-436) or low MYC levels (human cell: BT20) were evaluated. […] The viability of M1011 and 4T1 cells was reduced by 25% upon treatment with CART siMYC but not with CARTs alone or with CART siLUC (FIG. 4B, FIG. 4C). In human TNBC cells, treatment with a human MYC-targeting siRNA (SEQ ID NO: 1) reduced viability by 35% or 22% in MDA-MB-231 or MDA-MB-436 cells, respectively (FIG. 4D, FIG. 4E). […] We conclude that CART siMYC is effective against TNBC cells expressing high, but not low, MYC levels and that the breadth of its therapeutic effects is dependent on cellular MYC levels.
(§2) […] 96-well plates were rocked for 5 minutes at room temperature, 100 μl from each well were transferred to a white opaque 96-well plate and luminescence was read using a SpectraMax Paradigm Multi-Mode Detection Platform plate reader (Molecular Devices).

[2] = system: murine cell lines M1011, M158, and 4T1; test: JQ1 cell viability IC50, murine TNBC cell lines (CellTiter Glo); assay type: cell-based, mouse; settings: 24 hour treatment, range over murine TNBC cell lines
Procedure: as §1, §2

BT20 cells = test: Cell viability after CART with human MYC siRNA, BT20 (low MYC); assay type: cell-based; settings: JQ1 at the concentrations used for pre-treatment
Procedure: FIG. 4A to FIG. 4F: CART siMYC decreases cell viability in cells expressing high levels of Myc. […] Error bars represent SEM. Significance was taken at P<0.05 (*), P<0.01 (**), and P<0.005 (***). ns=not significant.
The specificity and dependence of CART siMYC's inhibitory effect on Myc or MYC levels in murine or human TNBC cells, respectively, was evaluated next. […] A number of different murine and human TNBC cell lines expressing high (murine cells: M158, M1011, and 4T1; and human cells: MDA-MB-231 and MDA-MB-436) or low MYC levels (human cell: BT20) were evaluated. […] The viability of M1011 and 4T1 cells was reduced by 25% upon treatment with CART siMYC but not with CARTs alone or with CART siLUC (FIG. 4B, FIG. 4C). In human TNBC cells, treatment with a human MYC-targeting siRNA (SEQ ID NO: 1) reduced viability by 35% or 22% in MDA-MB-231 or MDA-MB-436 cells, respectively (FIG. 4D, FIG. 4E). […]
Plates were incubated for 48 hours and upon treatment completion, a CellTiTer Glow assay was performed according to manufacturer's instructions (Promega). 96-well plates were rocked for 5 minutes at room temperature, 100 μl from each well were transferred to a white opaque 96-well plate and luminescence was read using a SpectraMax Paradigm Multi-Mode Detection Platform plate reader (Molecular Devices).

Cc1sc2c(c1C)C(c1ccc(Cl)cc1)=N[C@@H](CC(=O)OC(C)(C)C)c1nnc(C)n1-2 [JQ1]
IC50 [1]: 7 to 32 µM
IC50 [2]: 0.3 to 0.72 µM
effect of JQ1 on BT20 cells (BT20 cells): not significantly affected
